# Literature values, collected in patent publication US6552040B1, “Use of nitroxides in wound healing and in the prevention of photodamage” (priority 1999, dated 2003).
# What was measured:
# [1] = test system: UVB radiation-induced mouse skin damage; details: mice, topical solution prior to UVB exposure, versus untreated mice
# [2] = in vitro and in vivo
# [3] = test system: radiation-induced alopecia; details: field of heavily irradiated skin
Compound,protection against UVB radiation skin damage [1],other results
CC(C)(CO)[C@@H](O)C(=O)NCCC(=O)NCCS [pantetheine],no significant protection,–
"CC1(C)CC(O)CC(C)(C)N1[O] [Tempol, 4-hydroxy-2,2,6,6-tetramethyl-piperidinyloxy, free radical]",–,protection against ionizing radiation [2]: both in vitro and in vivo protection; protection against radiation-induced alopecia [3]: speeding the recovery of hair growth; protection of mammalian cells from hydrogen peroxide mediated cytotoxicity (mammalian cells): protecting mammalian cells; protection of mammalian cells from superoxide generated from hypoxanthine/xanthine oxidase (mammalian cells; superoxide dismutase mimic): protecting mammalian cells
O=C1O[C@H]([C@@H](O)CO)C(O)=C1O [ascorbic acid],significantly less damage,–
N[C@@H](Cc1c[nH]cn1)C(=O)O [histidine],no significant protection,–
Cc1c(C)c2c(c(C)c1O)CCC(C)(C(=O)O)O2 (stereo not shown) [Trolox],significantly less damage,–
NC(N)=O [urea],no significant protection,–
C=CC(O)C(O)C=C (stereo not shown) [divinylglycol],no significant protection,–
N[C@@H](CCC(=O)N[C@@H](CS)C(=O)NCC(=O)O)C(=O)O [glutathione],no significant protection,–
Cc1c(C)c2c(c(C)c1O)CC[C@@](C)(CCC[C@H](C)CCC[C@H](C)CCCC(C)C)O2 [alphatocopherol],significantly less damage,–
Cc1cc(C(C)(C)C)c(O)c(C(C)(C)C)c1 [BHT],no significant protection,–
OC[C@@H](O)[C@@H](O)[C@H](O)[C@H](O)CO [mannitol],no significant protection,–
CC1=C(/C=C/C(C)=C/C=C/C(C)=C/C=C/C=C(C)/C=C/C=C(C)/C=C/C2=C(C)CCCC2(C)C)C(C)(C)CCC1 [beta-carotene],no significant protection,–
CCCOC(=O)c1cc(O)c(O)c(O)c1 [propyl galate],significantly less damage,–
